This note sets out measurements from US20230141101A1, “PDE4 INHIBITOR COMPOUND AND MEDICAL USE THEREOF” (Suzhou Longbotai Pharmaceuticals Co., Ltd., priority 2020, published 2023).

What all share (assay type): biochemical
One assay concerns the target T1, PDE4B1 (Homo sapiens, UniProt Q07343).
T1 construct: purchased BPS 60041
In words: PDE4 inhibitory activity assay (FAM-cAMP enzymatic reaction), PDE4B1. On the procedure: (§1) The compounds of the present disclosure were tested for their inhibitory activity (IC50 value) against PDE4A1A, PDE4B1, and PDE4D2.
(§2) Positive compound: Trequinsin (Sigma, Cat No. T20S7).
(§3) Instrument: Wallac Victor Muti-lable counter (Pekin Elmer) Steps of assay:
(§4) PDE enzymatic reaction; • 1) PDE was dissolved in 1× reaction solution to prepare 2× enzyme solution; • 2) FAM-cAMP was dissolved in 1× reaction solution to prepare 2× substrate solution; • 3) Corresponding volume of the compound in DMSO was transferred to the reaction plate through Echo 550; • 4) 2× enzyme solution was added into the corresponding wells of the reaction plate and incubated with the compound solution for 15 minutes at room temperature; • 5) 2× substrate solution was added into the corresponding well of the reaction plate to initiate the reaction; • 6) After the reaction plate was incubated at room temperature for 30 min, the reaction was terminated by adding reaction stopping solution. The reaction plate was incubated at room temperature for another 60 minutes;
(§5) Inhibition rates were calculated with Excel; and IC50 for each compound was calculated with Graphpad prism.

Another assay concerns the target T2, PDE4A1A (Homo sapiens, UniProt P27815).
T2 construct: purchased BPS 60040
In words: PDE4 inhibitory activity assay (FAM-cAMP enzymatic reaction), PDE4A1A. On the procedure:
as §1, §2, §3, §4, §5

For a further assay, the target named is PDE4D2 (Homo sapiens, UniProt Q08499). In words: PDE4 inhibitory activity assay (FAM-cAMP enzymatic reaction), PDE4D2. On the procedure:
as §1, §2, §3, §4, §5

The mark [1] stands for this setting: compared with Apremilast and Example 11 of WO2018036470 (WX011).

T1 sequence (Q07343 whole entry): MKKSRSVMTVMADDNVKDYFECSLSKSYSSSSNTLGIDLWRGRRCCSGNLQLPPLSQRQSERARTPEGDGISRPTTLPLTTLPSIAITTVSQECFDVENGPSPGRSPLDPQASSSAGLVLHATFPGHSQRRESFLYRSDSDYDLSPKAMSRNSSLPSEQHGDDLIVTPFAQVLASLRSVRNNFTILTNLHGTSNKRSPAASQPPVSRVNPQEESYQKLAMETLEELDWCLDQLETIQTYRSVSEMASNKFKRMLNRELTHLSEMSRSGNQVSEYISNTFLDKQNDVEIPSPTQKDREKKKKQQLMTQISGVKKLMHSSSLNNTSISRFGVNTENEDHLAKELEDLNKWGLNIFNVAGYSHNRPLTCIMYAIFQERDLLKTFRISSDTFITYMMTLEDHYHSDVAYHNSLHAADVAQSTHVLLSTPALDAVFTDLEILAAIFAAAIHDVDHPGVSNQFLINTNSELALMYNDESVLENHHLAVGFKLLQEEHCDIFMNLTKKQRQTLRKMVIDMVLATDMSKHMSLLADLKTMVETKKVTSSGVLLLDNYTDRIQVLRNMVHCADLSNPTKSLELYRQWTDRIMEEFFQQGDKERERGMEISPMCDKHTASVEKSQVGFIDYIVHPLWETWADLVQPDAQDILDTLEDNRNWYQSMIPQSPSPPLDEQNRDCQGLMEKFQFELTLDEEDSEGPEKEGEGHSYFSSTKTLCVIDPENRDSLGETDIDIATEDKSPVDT
T2 sequence (P27815 1-647 isoform P27815-4): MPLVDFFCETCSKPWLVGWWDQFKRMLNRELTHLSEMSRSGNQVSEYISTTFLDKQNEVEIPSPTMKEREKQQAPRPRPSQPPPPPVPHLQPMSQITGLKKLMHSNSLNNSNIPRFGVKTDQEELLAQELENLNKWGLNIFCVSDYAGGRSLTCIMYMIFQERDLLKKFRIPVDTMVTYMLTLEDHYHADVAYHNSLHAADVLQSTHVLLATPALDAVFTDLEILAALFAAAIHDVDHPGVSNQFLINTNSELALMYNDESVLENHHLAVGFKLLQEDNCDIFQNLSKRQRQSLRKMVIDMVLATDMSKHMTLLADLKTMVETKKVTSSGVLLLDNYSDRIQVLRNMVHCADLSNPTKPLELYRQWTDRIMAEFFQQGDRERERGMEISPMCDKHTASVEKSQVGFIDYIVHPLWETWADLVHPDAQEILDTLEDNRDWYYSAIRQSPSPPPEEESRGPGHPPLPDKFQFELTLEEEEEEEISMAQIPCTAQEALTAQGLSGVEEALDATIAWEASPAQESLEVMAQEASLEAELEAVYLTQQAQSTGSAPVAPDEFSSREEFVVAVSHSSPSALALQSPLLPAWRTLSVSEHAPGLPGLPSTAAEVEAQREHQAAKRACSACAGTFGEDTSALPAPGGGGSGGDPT
PDE4D2, sequence (Q08499 303-809): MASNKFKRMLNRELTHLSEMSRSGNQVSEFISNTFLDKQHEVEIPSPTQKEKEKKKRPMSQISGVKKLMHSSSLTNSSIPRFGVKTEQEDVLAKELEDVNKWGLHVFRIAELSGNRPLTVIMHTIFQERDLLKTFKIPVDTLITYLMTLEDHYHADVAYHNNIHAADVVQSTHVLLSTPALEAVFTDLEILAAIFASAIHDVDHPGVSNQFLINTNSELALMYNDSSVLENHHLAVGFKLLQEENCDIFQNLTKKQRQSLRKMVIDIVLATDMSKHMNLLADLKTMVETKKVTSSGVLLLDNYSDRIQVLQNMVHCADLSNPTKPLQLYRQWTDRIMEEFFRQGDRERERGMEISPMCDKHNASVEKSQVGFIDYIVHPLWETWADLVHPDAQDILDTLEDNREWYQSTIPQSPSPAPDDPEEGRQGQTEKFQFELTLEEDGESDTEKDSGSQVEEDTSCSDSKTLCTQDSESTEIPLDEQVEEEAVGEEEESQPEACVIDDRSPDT

Regarding `CCOc1nc([C@@H](CS(C)(=O)=O)n2c(=O)[nH]c3c(C)c(-c4ccccn4)cnc32)ccc1OC` [Ex. 17, (S)-3-(1-(6-ethoxy-5-methoxypyridin-2-yl)-2-(methylsulfonyl)ethyl)-7-methyl-6-(pyridin-2-yl)-1H-imidazo[4,5-b]pyridin-2(3H)-one], the “PDE4 B1 inhibitory effect at 20 nM” value on PDE4B1 was “+”. Further, the “PDE4 A1 inhibitory effect at 20 nM” value on PDE4A1A is listed as “+”. Moreover, the “PDE4 D2 inhibitory effect at 20 nM” value at PDE4D2 is “=”.

For the molecule `CCOc1nc([C@H](CS(C)(=O)=O)n2c(=O)[nH]c3c(C)c(-c4ccccn4)cnc32)ccc1OC` [Ex. 18, (R)-3-(1-(6-ethoxy-5-methoxypyridin-2-yl)-2-(methylsulfonyl)ethyl)-7-methyl-6-(pyridin-2-yl)-1H-imidazo[4,5-b]pyridin-2(3H)-one], the “PDE4 B1 inhibitory effect at 20 nM” value on PDE4B1 is recorded as “−”. Further, the “PDE4 A1 inhibitory effect at 20 nM” value on PDE4A1A is “−”. For the same molecule, on PDE4D2, the “PDE4 D2 inhibitory effect at 20 nM” value is reported as “−”.

With `CCOc1nc([C@@H](CS(C)(=O)=O)n2c(=O)n(C)c3c(C)c(-c4ccccn4)cnc32)ccc1OC` [Ex. 19, (S)-3-(1-(6-ethoxy-5-methoxypyridin-2-yl)-2-(methylsulfonyl)ethyl)-1,7-dimethyl-6-(pyridin-2-yl)-1H-imidazo[4,5-b]pyridin-2(3H)-one], the “PDE4 B1 inhibitory effect at 20 nM” value at PDE4B1 is listed as “+”. At PDE4A1A, the “PDE4 A1 inhibitory effect at 20 nM” value is given as “+”. Further, the “PDE4 D2 inhibitory effect at 20 nM” value at PDE4D2 is listed as “+”.

`CCOc1nc([C@@H](CS(C)(=O)=O)n2c(=O)n(CCOC)c3c(C)c(-c4ccccn4)cnc32)ccc1OC` [Ex. 20, (S)-3-(1-(6-ethoxy-5-methoxypyridin-2-yl)-2-(methylsulfonyl)ethyl)-1-(2-methoxyethyl)-7-methyl-6-(pyridin-2-yl)-1H-imidazo[4,5-b]pyridin-2(3H)-one]: the “PDE4 B1 inhibitory effect at 20 nM” value at PDE4B1 is “+”. The “PDE4 A1 inhibitory effect at 20 nM” value at PDE4A1A is on record as “+”. In addition, at PDE4D2, the “PDE4 D2 inhibitory effect at 20 nM” value was “+”.

For the molecule `CCOc1nc([C@H](CS(C)(=O)=O)n2c(=O)n(C)c3c(C)c(-c4ccccc4F)cnc32)ccc1OC` [Ex. 22], the “PDE4 B1 inhibitory effect at 20 nM” value on PDE4B1 was “−”. On PDE4A1A, the “PDE4 A1 inhibitory effect at 20 nM” value is “−”. On PDE4D2, the “PDE4 D2 inhibitory effect at 20 nM” value is given as “−”.

Take `CCOc1nc([C@@H](CS(C)(=O)=O)n2c(=O)[nH]c3c(C)c(-c4c(F)cccc4F)cnc32)ccc1OC` [Ex. 23, (S)-6-(2,6-difluorophenyl)-3-(1-(6-ethoxy-5-methoxypyridin-2-yl)-2-(methylsulfonyl)ethyl)-7-methyl-1H-imidazo[4,5-b]pyridin-2(3H)-one]: the “PDE4 B1 inhibitory effect at 20 nM” value on PDE4B1 is “+”. Besides, the “PDE4 A1 inhibitory effect at 20 nM” value at PDE4A1A is reported as “+”. Further, on PDE4D2, the “PDE4 D2 inhibitory effect at 20 nM” value was “+”.

As to `CCOc1nc([C@H](CS(C)(=O)=O)n2c(=O)[nH]c3c(C)c(-c4c(F)cccc4F)cnc32)ccc1OC` [Ex. 24, (R)-6-(2,6-difluorophenyl)-3-(1-(6-ethoxy-5-methoxypyridin-2-yl)-2-(methylsulfonyl)ethyl)-7-methyl-1H-imidazo[4,5-b]pyridin-2(3H)-one], the “PDE4 B1 inhibitory effect at 20 nM” value at PDE4B1 is reported as “−”. Moreover, the “PDE4 A1 inhibitory effect at 20 nM” value on PDE4A1A is listed as “−”. Moreover, the “PDE4 D2 inhibitory effect at 20 nM” value on PDE4D2 is listed as “−”.

As for `CCOc1nc([C@@H](CS(C)(=O)=O)n2c(=O)[nH]c3c(C)c(-c4cccc(F)c4F)cnc32)ccc1OC` [Ex. 25, (S)-6-(2,3-difluorophenyl)-3-(1-(6-ethoxy-5-methoxypyridin-2-yl)-2-(methylsulfonyl)ethyl)-7-methyl-1H-imidazo[4,5-b]pyridin-2(3H)-one], the “PDE4 B1 inhibitory effect at 20 nM” value on PDE4B1 is reported as “+”. The “PDE4 A1 inhibitory effect at 20 nM” value at PDE4A1A is given as “+”. Also, at PDE4D2, the “PDE4 D2 inhibitory effect at 20 nM” value is “+”.

As for `CCOc1nc([C@H](CS(C)(=O)=O)n2c(=O)[nH]c3c(C)c(-c4cccc(F)c4F)cnc32)ccc1OC` [Ex. 26, (R)-6-(2,3-difluorophenyl)-3-(1-(6-ethoxy-5-methoxypyridin-2-yl)-2-(methylsulfonyl)ethyl)-7-methyl-1H-imidazo[4,5-b]pyridin-2(3H)-one], on PDE4B1, the “PDE4 B1 inhibitory effect at 20 nM” value is recorded as “−”. Also, the “PDE4 A1 inhibitory effect at 20 nM” value on PDE4A1A is reported as “−”. Moreover, the “PDE4 D2 inhibitory effect at 20 nM” value on PDE4D2 is given as “−”.

Regarding `CCOc1nc([C@@H](CS(C)(=O)=O)n2c(=O)[nH]c3c(C)c(-c4ccc(F)cc4F)cnc32)ccc1OC` [Ex. 28, (S)-6-(2,4-difluorophenyl)-3-(1-(6-ethoxy-5-methoxypyridin-2-yl)-2-(methylsulfonyl)ethyl)-7-methyl-1H-imidazo[4,5-b]pyridin-2(3H)-one], the “PDE4 B1 inhibitory effect at 20 nM” value on PDE4B1 is recorded as “+”. For the same molecule, the “PDE4 A1 inhibitory effect at 20 nM” value at PDE4A1A is “+”. Also, the “PDE4 D2 inhibitory effect at 20 nM” value on PDE4D2 is “+”.

`CCOc1nc([C@@H](CS(C)(=O)=O)n2c(=O)[nH]c3c(C)c(-c4cc(F)c(F)cc4F)cnc32)ccc1OC` [Ex. 29, (S)-6-(2,4,5-trifluorophenyl)-3-(1-(6-ethoxy-5-methoxypyridin-2-yl)-2-(methylsulfonyl)ethyl)-7-methyl-1H-imidazo[4,5-b]pyridin-2(3H)-one]: on PDE4B1, the “PDE4 B1 inhibitory effect at 20 nM” value was “+”. The “PDE4 A1 inhibitory effect at 20 nM” value on PDE4A1A is given as “+”. For the same molecule, on PDE4D2, the “PDE4 D2 inhibitory effect at 20 nM” value is given as “+”.

In the case of `CCOc1nc([C@H](CS(C)(=O)=O)n2c(=O)[nH]c3c(C)c(-c4cc(F)ccc4F)cnc32)ccc1OC` [Ex. 30, (R)-6-(2,5-difluorophenyl)-3-(1-(6-ethoxy-5-methoxypyridin-2-yl)-2-(methylsulfonyl)ethyl)-7-methyl-1H-imidazo[4,5-b]pyridin-2(3H)-one], the “PDE4 B1 inhibitory effect at 20 nM” value at PDE4B1 is “−”. Besides, the “inhibitory activity against PDE4B1 compared with Apremilast and WX011” value on PDE4B1 (setting [1]) is “significantly enhanced inhibitory activity”. Besides, at PDE4A1A, the “PDE4 A1 inhibitory effect at 20 nM” value is “−”. The “inhibitory activity against PDE4A1A compared with Apremilast and WX011” value on PDE4A1A (setting [1]) is listed as “significantly enhanced inhibitory activity”. Also, the “PDE4 D2 inhibitory effect at 20 nM” value at PDE4D2 is listed as “−”. The “inhibitory activity against PDE4D2 compared with Apremilast and WX011” value at PDE4D2 (setting [1]) was “significantly enhanced inhibitory activity”.

Consider `CCOc1nc([C@@H](CS(C)(=O)=O)n2c(=O)[nH]c3c(C)c(-c4cc(C)ccc4C)cnc32)ccc1OC` [Ex. 32, (S)-6-(2,5-dimethylphenyl)-3-(1-(6-ethoxy-5-methoxypyridin-2-yl)-2-(methylsulfonyl)ethyl)-7-methyl-1H-imidazo[4,5-b]pyridin-2(3H)-one], for which the “PDE4 B1 inhibitory effect at 20 nM” value at PDE4B1 is “+”. The “PDE4 A1 inhibitory effect at 20 nM” value at PDE4A1A was “+”. In addition, on PDE4D2, the “PDE4 D2 inhibitory effect at 20 nM” value was “+”.

In the case of `CCOc1nc([C@@H](CS(C)(=O)=O)n2c(=O)[nH]c3c(C)c(-c4cccc(C)c4C)cnc32)ccc1OC` [Ex. 33, (S)-6-(2,3-dimethylphenyl)-3-(1-(6-ethoxy-5-methoxypyridin-2-yl)-2-(methylsulfonyl)ethyl)-7-methyl-1H-imidazo[4,5-b]pyridin-2(3H)-one], on PDE4B1, the “PDE4 B1 inhibitory effect at 20 nM” value was “+”. Also, the “PDE4 A1 inhibitory effect at 20 nM” value on PDE4A1A is recorded as “+”. Besides, the “PDE4 D2 inhibitory effect at 20 nM” value at PDE4D2 is “+”.

As for `CCOc1nc([C@@H](CS(C)(=O)=O)n2c(=O)[nH]c3c(C)c(-c4c(C)cccc4C)cnc32)ccc1OC` [Ex. 34, (S)-6-(2,6-dimethylphenyl)-3-(1-(6-ethoxy-5-methoxypyridin-2-yl)-2-(methylsulfonyl)ethyl)-7-methyl-1H-imidazo[4,5-b]pyridin-2(3H)-one], on PDE4B1, the “PDE4 B1 inhibitory effect at 20 nM” value is listed as “+”. For the same molecule, the “PDE4 A1 inhibitory effect at 20 nM” value on PDE4A1A is recorded as “+”. The “PDE4 D2 inhibitory effect at 20 nM” value at PDE4D2 is listed as “+”.

As for `CCOc1nc([C@@H](CS(C)(=O)=O)n2c(=O)[nH]c3c(C)c(-c4cc(F)ccc4C)cnc32)ccc1OC` [Ex. 36, (S)-6-(5-fluoro-2-methylphenyl)-3-(1-(6-ethoxy-5-methoxypyridin-2-yl)-2-(methylsulfonyl)ethyl)-7-methyl-1H-imidazo[4,5-b]pyridin-2(3H)-one], the “PDE4 B1 inhibitory effect at 20 nM” value at PDE4B1 is given as “+”. Further, the “PDE4 A1 inhibitory effect at 20 nM” value on PDE4A1A is recorded as “+”. Also, the “PDE4 D2 inhibitory effect at 20 nM” value on PDE4D2 is “+”.

`CCOc1nc([C@@H](CS(C)(=O)=O)n2c(=O)[nH]c3c(C)c(-c4cccc(F)c4C)cnc32)ccc1OC` [Ex. 37, (S)-6-(3-fluoro-2-methylphenyl)-3-(1-(6-ethoxy-5-methoxypyridin-2-yl)-2-(methylsulfonyl)ethyl)-7-methyl-1H-imidazo[4,5-b]pyridin-2(3H)-one]: the “PDE4 B1 inhibitory effect at 20 nM” value at PDE4B1 was “+”. At PDE4A1A, the “PDE4 A1 inhibitory effect at 20 nM” value is “+”. For the same molecule, the “PDE4 D2 inhibitory effect at 20 nM” value at PDE4D2 was “+”.

For `CCOc1nc([C@@H](CS(C)(=O)=O)n2c(=O)[nH]c3c(C)c(-c4cc(C)ccc4F)cnc32)ccc1OC` [Ex. 38, (S)-6-(2-fluoro-5-methylphenyl)-3-(1-(6-ethoxy-5-methoxypyridin-2-yl)-2-(methylsulfonyl)ethyl)-7-methyl-1H-imidazo[4,5-b]pyridin-2(3H)-one], the “PDE4 B1 inhibitory effect at 20 nM” value on PDE4B1 is “+”. Also, the “PDE4 A1 inhibitory effect at 20 nM” value on PDE4A1A was “+”. Further, on PDE4D2, the “PDE4 D2 inhibitory effect at 20 nM” value is “+”.

As for `CCOc1nc([C@@H](CS(C)(=O)=O)n2c(=O)[nH]c3c(C)c(-c4cccc(C)c4F)cnc32)ccc1OC` [Ex. 39, (S)-6-(2-fluoro-3-methylphenyl)-3-(1-(6-ethoxy-5-methoxypyridin-2-yl)-2-(methylsulfonyl)ethyl)-7-methyl-1H-imidazo[4,5-b]pyridin-2(3H)-one], the “PDE4 B1 inhibitory effect at 20 nM” value on PDE4B1 is “+”. Besides, the “PDE4 A1 inhibitory effect at 20 nM” value on PDE4A1A is on record as “+”. The “PDE4 D2 inhibitory effect at 20 nM” value at PDE4D2 was “+”.
